In ChEMBL document CHEMBL4004883, “Biologically active perspective synthesis of heteroannulated 8-nitroquinolines with green chemistry approach” (Bioorg Med Chem Lett, 2017):
Converted amounts (≈) assume the structure as drawn.

What was measured:
Escherichia coli [1] = experiment: Antibacterial activity against Escherichia coli MTCC 1652 incubated for 24 hrs under dark condition by microwell dilution method; type: functional; conditions: MTCC 1652, 24 h
Pseudomonas aeruginosa [2] = experiment: Antibacterial activity against Pseudomonas aeruginosa MTCC 102 at 100 ug incubated for 24 hrs under dark condition by agar well diffusion method; type: functional; conditions: MTCC 102, 24 h, read-out: IZ
A549 = experiment: Cytotoxicity against human A549 cells assessed as decrease in cell viability after 48 hrs by MTT assay; type: functional, cell-based; conditions: A549, 48 h
Bacillus subtilis [3] = experiment: Antibacterial activity against Bacillus subtilis MTCC 121 incubated for 24 hrs under dark condition by microwell dilution method; type: functional; conditions: MTCC 121, 24 h
[4] = Antioxidant activity assessed as DPPH radical scavenging activity after 20 mins by UV/VIS Spectrophotometric method; type: functional
Escherichia coli [5] = experiment: Antibacterial activity against Escherichia coli MTCC 1652 at 100 ug incubated for 24 hrs under dark condition by agar well diffusion method; type: functional; conditions: MTCC 1652, 24 h, read-out: IZ
Staphylococcus aureus [6] = experiment: Antibacterial activity against Staphylococcus aureus MTCC 96 at 100 ug incubated for 24 hrs under dark condition by agar well diffusion method; type: functional; conditions: MTCC 96, 24 h, read-out: IZ
[7] = Antioxidant activity assessed as assessed as ferric ion reducing activity by measuring absorbance at 700 nm at 60 ug/ml after 20 mins by spectrophotometric method; type: functional
[8] = Antioxidant activity assessed as assessed as ferric ion reducing activity by measuring absorbance at 700 nm at 100 ug/ml after 20 mins by spectrophotometric method; type: functional
MCF7 = experiment: Cytotoxicity against human MCF7 cells assessed as decrease in cell viability after 48 hrs by MTT assay; type: functional, cell-based; conditions: MCF7, 48 h
Pseudomonas aeruginosa [9] = experiment: Antibacterial activity against Pseudomonas aeruginosa MTCC 102 incubated for 24 hrs under dark condition by microwell dilution method; type: functional; conditions: MTCC 102, 24 h
[10] = Antioxidant activity assessed as total antioxidant capacity measured as ascorbic acid equivalents at 20 ug/ml after 90 mins by phosphomolybdenum method; type: functional
Bacillus subtilis [11] = experiment: Antibacterial activity against Bacillus subtilis MTCC 121 at 100 ug incubated for 24 hrs under dark condition by agar well diffusion method; type: functional; conditions: MTCC 121, 24 h, read-out: IZ
[12] = Antioxidant activity assessed as total antioxidant capacity measured as ascorbic acid equivalents at 60 ug/ml after 90 mins by phosphomolybdenum method; type: functional
Staphylococcus aureus [13] = experiment: Antibacterial activity against Staphylococcus aureus MTCC 96 incubated for 24 hrs under dark condition by microwell dilution method; type: functional; conditions: MTCC 96, 24 h
[14] = Antioxidant activity assessed as assessed as ferric ion reducing activity by measuring absorbance at 700 nm at 20 ug/ml after 20 mins by spectrophotometric method; type: functional
[15] = Antioxidant activity assessed as total antioxidant capacity measured as ascorbic acid equivalents at 100 ug/ml after 90 mins by phosphomolybdenum method; type: functional

SMILES	MIC (Escherichia coli [1]) [µg/mL]	zone of inhibition at 100 µg/disc (Pseudomonas aeruginosa [2]) [mm]	IC50 (A549) [µM]	MIC (Bacillus subtilis [3]) [µg/mL]	IC50 [4] [µg/mL]	zone of inhibition at 100 µg/disc (Escherichia coli [5]) [mm]	zone of inhibition at 100 µg/disc (Staphylococcus aureus [6]) [mm]	OD [7]	OD [8]	IC50 (MCF7) [µM]	MIC (Pseudomonas aeruginosa [9]) [µg/mL]	Activity [10] [µgequiv/ml]	zone of inhibition at 100 µg/disc (Bacillus subtilis [11]) [mm]	Activity [12] [µgequiv/ml]	MIC (Staphylococcus aureus [13]) [µg/mL]	OD [14]	Activity [15] [µgequiv/ml]
Cc1ccc(C2C(C#N)=C(N)OC3=C2CNc2c3cccc2[N+](=O)[O-])cc1 (configuration not stated)	25.5 (≈ 70.8 µM)	15	56.3	50 (≈ 139 µM)	183.1 (≈ 508 µM)	18	13	0.111	0.163	34.1	55.5 (≈ 154 µM)	1.82	12	4.43	55 (≈ 153 µM)	0.09	8.15
N#CC1=C(N)OC2=C(CNc3c2cccc3[N+](=O)[O-])C1c1ccc(Cl)cc1 (configuration not stated)	17 (≈ 44.6 µM)	18	28.1	10 (≈ 26.3 µM)	118.03 (≈ 310 µM)	21	21	0.125	0.189	22.7	55.5 (≈ 146 µM)	0.59	24	1.06	10 (≈ 26.3 µM)	0.088	2.57
O=[N+]([O-])c1cccc2c1NCC1C2=NN(c2ccccc2)C1c1ccc(Br)cc1 (configuration not stated)	25.5 (≈ 56.8 µM)	16	29.6	12.5 (≈ 27.8 µM)	226.97 (≈ 505 µM)	18	16	0.096	0.107	34.7	55.5 (≈ 124 µM)	6.12	19	13.7	15 (≈ 33.4 µM)	0.09	18.2
N#CC1=C(N)OC2=C(CNc3c2cccc3[N+](=O)[O-])C1c1ccc(Br)cc1 (configuration not stated)	25.5 (≈ 60 µM)	20	34.8	12.5 (≈ 29.4 µM)	125.08 (≈ 294 µM)	18	20	0.095	0.134	24.7	37 (≈ 87 µM)	1.5	20	2.98	10 (≈ 23.5 µM)	0.071	5.67
O=[N+]([O-])c1cc(Cl)cc2c1NCC1C2=NNC1c1ccc(Cl)cc1 (configuration not stated)	97.5 (≈ 268 µM)	14	95.1	60 (≈ 165 µM)	169.33 (≈ 466 µM)	8	13	0.083	0.091	78.5	100 (≈ 275 µM)	3.47	10	6.27	55 (≈ 151 µM)	0.072	11.8
CC1(C)S[C@@H]2[C@H](NC(=O)[C@H](N)c3ccccc3)C(=O)N2[C@H]1C(=O)O [AMPICILLIN]	8.5 (≈ 24.3 µM)	22	–	2.5 (≈ 7.15 µM)	–	24	24	–	–	–	18.5 (≈ 52.9 µM)	–	30	–	2.5 (≈ 7.15 µM)	–	–
N#CC1=C(N)OC2=C(CNc3c2cccc3[N+](=O)[O-])C1c1ccc(F)cc1 (configuration not stated)	17 (≈ 46.7 µM)	20	22.1	7.5 (≈ 20.6 µM)	128.58 (≈ 353 µM)	22	23	0.098	0.12	35.7	37 (≈ 102 µM)	2.12	26	4.06	5 (≈ 13.7 µM)	0.085	7.45
COc1ccc(C2C3CNc4c(cccc4[N+](=O)[O-])C3=NN2c2ccccc2)cc1OC (configuration not stated)	34 (≈ 79 µM)	16	46.4	12.5 (≈ 29 µM)	169.91 (≈ 395 µM)	18	19	0.102	0.155	58.5	55.5 (≈ 129 µM)	4.04	19	8.12	12.5 (≈ 29 µM)	0.084	12.3
N#CC1=C(N)OC2=C(CNc3c2cc(Cl)cc3[N+](=O)[O-])C1c1ccc(Cl)cc1 (configuration not stated)	25.5 (≈ 61.4 µM)	16	25.5	17.5 (≈ 42.1 µM)	132.65 (≈ 319 µM)	18	15	0.125	0.156	18	55.5 (≈ 134 µM)	3.67	18	7.08	17.5 (≈ 42.1 µM)	0.093	13
O=C1O[C@H]([C@@H](O)CO)C(O)=C1O [ASCORBIC ACID]	–	–	–	–	28.02 (≈ 159 µM)	–	–	–	–	–	–	–	–	–	–	–	–
COc1ccc(C2C(C#N)=C(N)OC3=C2CNc2c3cccc2[N+](=O)[O-])cc1 (configuration not stated)	17 (≈ 45.2 µM)	21	35.6	12.5 (≈ 33.2 µM)	65.42 (≈ 174 µM)	20	21	0.211	0.368	16.8	37 (≈ 98.3 µM)	7.55	20	15.1	10 (≈ 26.6 µM)	0.109	23.2
O=[N+]([O-])c1cc(Cl)cc2c1NCC1C2=NNC1c1ccc(F)cc1 (configuration not stated)	80.5 (≈ 232 µM)	8	63.6	50 (≈ 144 µM)	155.12 (≈ 447 µM)	12	12	0.088	0.098	98.7	200 (≈ 577 µM)	1.21	12	2.49	50 (≈ 144 µM)	0.08	5.03
Cc1cc(C(C)(C)C)c(O)c(C(C)(C)C)c1	–	–	–	–	–	–	–	0.448	0.612	–	–	–	–	–	–	0.329	–
